Results on 12 compounds are retold here after ChEMBL document CHEMBL1641546, “The discovery and structure-activity relationships leading to CE-156811, a difluorophenyl cyclopropyl fluoroether: a novel potent antibacterial analog derived from hygromycin A” (Bioorg Med Chem Lett, 2011).

A word on the MIC: it is the smallest concentration in the dilution series that meets the test's criterion for growth inhibition. Usually MIC90 stands for an inhibitory concentration at the 90% level, which refers to growth in some studies and to a panel of isolates in others. As a reminder, the clearance is the rate of elimination divided by the concentration. What is called half-life is the time needed for the level to fall by half in the phase considered. One may read the bioavailability as dose-corrected exposure relative to a reference, in per cent.

In brackets after ≈: the same amount, converted by molar mass. Activity calls are given as the source filed them.

For data set [1], the system named is Staphylococcus aureus. Put plainly: Antibacterial activity against Staphylococcus aureus 1095. Type of data set: functional.
Data set [2] has as its system Enterococcus faecalis. The data set is described as follows: Antibacterial activity against Enterococcus faecalis 1085. The class given is functional.
In data set [3] the test system is Enterococcus faecium. Put plainly: Antibacterial activity against Enterococcus faecium 1022. The class given is functional.
Data set [4] has as its system Streptococcus pneumoniae. Put plainly: Antibacterial activity against Streptococcus pneumoniae 1016. Type of data set: functional.
Data set [5] concerns Staphylococcus aureus. The data set is described as follows: Antibacterial activity against methicillin-sensitive Staphylococcus aureus. Type of data set: functional.
Data set [6] deals with Staphylococcus aureus. The data set is described as follows: Antibacterial activity against methicillin-resistant Staphylococcus aureus. The class given is functional.
The subject of data set [7] is Staphylococcus aureus. Put plainly: Antibacterial activity against glycopeptide-intermediate Staphylococcus aureus. The class given is functional.
The subject of data set [8] is Staphylococcus epidermidis. The data set is described as follows: Antibacterial activity against methicillin-sensitive Staphylococcus epidermidis. The class given is functional.
The test system of data set [9] is Streptococcus pneumoniae. Put plainly: Antibacterial activity against penicillin-resistant Streptococcus pneumoniae. The class given is functional.
Data set [10] deals with Enterococcus faecalis. Put plainly: Antibacterial activity against multidrug-resistant Enterococcus faecalis. Type of data set: functional.
The test system of data set [11] is Enterococcus faecium. The data set is described as follows: Antibacterial activity against multidrug-resistant Enterococcus faecium. Type of data set: functional.
Data set [12] deals with Enterococcus faecium. The data set is described as follows: Antibacterial activity against Enterococcus faecium infected in po dosed in vivo acute model administered bid for 1 day. Type of data set: functional. The following applies: 24 h, read-out: PD50.
Data set [13] deals with Enterococcus faecalis. The data set is described as follows: Antibacterial activity against Enterococcus faecalis infected in po dosed in vivo acute model administered bid for 1 day. The class given is functional. The note with it: 24 h, read-out: PD50.
Data set [14] deals with Streptococcus pneumoniae. The data set is described as follows: Antibacterial activity against Streptococcus pneumoniae infected in po dosed in vivo lung model administered bid for 3 day. Type of data set: functional. The following applies: 72 h, read-out: PD50.
Data set [15] concerns Streptococcus pyogenes. The data set is described as follows: Antibacterial activity against Streptococcus pyogenes infected in po dosed in vivo acute model administered bid for 1 day. The class given is functional. The following applies: 24 h, read-out: PD50.
A short description of data set [16]: Clearance in mouse. The class given is ADME, organism-based. The note with it: in vivo.
A short description of data set [17]: Clearance in rat. The class given is ADME, organism-based. The note with it: in vivo.
Data set [18] in a line: Clearance in monkey. The class given is ADME, organism-based, Macaca mulatta. The following applies: rhesus monkey, in vivo.
The nature of data set [19]: Clearance in dog. The class given is ADME, organism-based, Canis lupus familiaris. The following applies: in vivo.
Data set [20] is described as follows: Volume of distribution at steady state in mouse. The class given is ADME, organism-based. The following applies: in vivo, read-out: Vdss.
Data set [21] can be described thus: Volume of distribution at steady state in rat. Type of data set: ADME, organism-based. The following applies: in vivo, read-out: Vdss.
Data set [22] is described as follows: Volume of distribution at steady state in monkey. The class given is ADME, organism-based, Macaca mulatta. The following applies: rhesus monkey, in vivo; read-out: Vdss.
Data set [23] in a line: Volume of distribution at steady state in dog. Type of data set: ADME, organism-based, Canis lupus familiaris. The note with it: in vivo, read-out: Vdss.
Data set [24] is described as follows: Half life in mouse. The following applies: in vivo. Type of data set: ADME, organism-based.
The nature of data set [25]: Half life in rat. Type of data set: ADME, organism-based. The note with it: in vivo.
The nature of data set [26]: Half life in monkey. Type of data set: ADME, organism-based, Macaca mulatta. The following applies: rhesus monkey, in vivo.
A short description of data set [27]: Half life in dog. Type of data set: ADME, organism-based, Canis lupus familiaris. The following applies: in vivo.
Data set [28] in a line: Oral bioavailability in mouse. Type of data set: ADME, organism-based. The following applies: in vivo.
Data set [29] is described as follows: Oral bioavailability in rat at 10 mg/kg, po and 5 mg/kg, iv. The class given is ADME, organism-based. The note with it: in vivo.
Data set [30] has as its system Staphylococcus aureus. Put plainly: Antibacterial activity against Staphylococcus aureus infected in sc dosed in vivo acute model administered bid for 1 day. The following applies: 24 h, read-out: PD50. The class given is functional.
Data set [31] relates to Enterococcus faecium. Put plainly: Antibacterial activity against Enterococcus faecium infected in sc dosed in vivo acute model administered bid for 1 day. The class given is functional. The following applies: 24 h, read-out: PD50.
Data set [32] has as its system Enterococcus faecalis. Put plainly: Antibacterial activity against Enterococcus faecalis infected in sc dosed in vivo acute model administered bid for 1 day. Type of data set: functional. The note with it: 24 h, read-out: PD50.
The test system of data set [33] is Streptococcus pneumoniae. The data set is described as follows: Antibacterial activity against Streptococcus pneumoniae infected in sc dosed in vivo lung model administered bid for 3 day. Type of data set: functional. The note with it: 72 h, read-out: PD50.
Data set [34] concerns Streptococcus pyogenes. The data set is described as follows: Antibacterial activity against Streptococcus pyogenes infected in sc dosed in vivo acute model administered bid for 1 day. The following applies: 24 h, read-out: PD50. Type of data set: functional.

Turning to `C/C(=C\c1cc(F)c(OCC(F)C2CC2)cc1F)C(=O)N[C@@H]1[C@H](O)[C@@H](O)[C@H]2OCO[C@H]2[C@@H]1O` (some centres not stated), the MIC in data set [1] was determined as 1.56 µg/mL (≈ 3.3 µM); in [2] it was 1.6 µg/mL (≈ 3.38 µM); in [3] it was 1.6 µg/mL (≈ 3.38 µM); in data set [4], 0.4 µg/mL (≈ 0.845 µM).

Take `CC(=O)NC[C@H]1CN(c2ccc(N3CCOCC3)c(F)c2)C(=O)O1` [LINEZOLID]: the MIC90 in data set [5] is 2 µg/mL (≈ 5.93 µM); in data set [6], 1 µg/mL (≈ 2.96 µM); in [7], 0.5 µg/mL (≈ 1.48 µM); in data set [8], 1 µg/mL (≈ 2.96 µM); in [9] it was 1 µg/mL (≈ 2.96 µM); in data set [10], 1 µg/mL (≈ 2.96 µM). In addition, in data set [11], the MIC90 was 2 µg/mL (≈ 5.93 µM). Further, the ED50 in data set [12] was 4 mg/kg; in [13] it was 3 mg/kg; in [14] it was 10 mg/kg; in data set [15], 3 mg/kg.

In the case of `C/C(=C\c1cc(F)c(OC[C@H](F)C2CC2)cc1F)C(=O)N[C@@H]1[C@H](O)[C@@H](O)[C@H]2OCO[C@H]2[C@@H]1O`, the MIC90 in data set [5] turned out to be 1 µg/mL (≈ 2.11 µM); in [6] it was 0.5 µg/mL (≈ 1.06 µM); in [7], 0.125 µg/mL (≈ 0.264 µM); in [8], 0.25 µg/mL (≈ 0.528 µM); in [9] it was 0.5 µg/mL (≈ 1.06 µM); in data set [10] it was 0.5 µg/mL (≈ 1.06 µM). In data set [11], this compound came in with an MIC90 of 1 µg/mL (≈ 2.11 µM). The clearance in data set [16] turned out to be 12.1 mL/min/kg; in [17], 10.5 mL/min/kg; in data set [18], 8.6 mL/min/kg; in data set [19], 5.4 mL/min/kg. The Vd was determined as 0.52 L/kg in data set [20], 0.5 L/kg in data set [21], 0.59 L/kg in data set [22] and 0.71 L/kg in data set [23]. Moreover, the half-life in data set [24] is 1.4 h; in data set [25], 1.3 h; in [26] it was 1 h; in data set [27], 1.9 h. In addition, the bioavailability in [28] was 55%; in data set [29], 56%. Besides, the ED50 in data set [30] came to 4 mg/kg; in [31], 8 mg/kg; in [32], 10 mg/kg; in data set [33], 23 mg/kg; in [34] it was 3 mg/kg.

As to `C/C(=C\c1cc(F)c(OCCCF)cc1F)C(=O)N[C@@H]1[C@H](O)[C@@H](O)[C@H]2OCO[C@H]2[C@@H]1O`, the minimum inhibitory concentration (MIC) in [1] was 1.56 µg/mL (≈ 3.49 µM); in [2], 1.56 µg/mL (≈ 3.49 µM); in data set [3], 0.78 µg/mL (≈ 1.74 µM); in data set [4], 2 µg/mL (≈ 4.47 µM).

Consider `C/C(=C\c1cc(F)c(OCCC(C)(C)F)cc1F)C(=O)N[C@@H]1[C@H](O)[C@@H](O)[C@H]2OCO[C@H]2[C@@H]1O`, for which the MIC was found to be 100 µg/mL (≈ 210 µM) in data set [1], 100 µg/mL (≈ 210 µM) in data set [2], 50 µg/mL (≈ 105 µM) in [3] and 25 µg/mL (≈ 52.6 µM) in [4].

As for `C/C(=C\c1cc(F)c(OCC2CCC2)cc1F)C(=O)N[C@@H]1[C@H](O)[C@@H](O)[C@H]2OCO[C@H]2[C@@H]1O`, the MIC in [1] turned out to be 12.5 µg/mL (≈ 27.4 µM); in [2], 12.5 µg/mL (≈ 27.4 µM); in [3], 6.2 µg/mL (≈ 13.6 µM); in data set [4], 6.2 µg/mL (≈ 13.6 µM).

Regarding `C/C(=C\c1cc(F)c(OCCF)cc1F)C(=O)N[C@@H]1[C@H](O)[C@@H](O)[C@H]2OCO[C@H]2[C@@H]1O`, the MIC amounted to 50 µg/mL (≈ 115 µM) in data set [1], 25 µg/mL (≈ 57.7 µM) in data set [2], 25 µg/mL (≈ 57.7 µM) in data set [3] and 6.2 µg/mL (≈ 14.3 µM) in [4].

As to `C/C(=C\c1cc(F)c(OCC(C)F)cc1F)C(=O)N[C@@H]1[C@H](O)[C@@H](O)[C@H]2OCO[C@H]2[C@@H]1O` (some centres not stated), the MIC in data set [1] is 6.25 µg/mL (≈ 14 µM); in data set [2], 60.2 µg/mL (≈ 135 µM); in data set [3], 3.13 µg/mL (≈ 7 µM); in data set [4], 60.2 µg/mL (≈ 135 µM).

On to `C/C(=C\c1cc(F)c(OCCC(F)F)cc1F)C(=O)N[C@@H]1[C@H](O)[C@@H](O)[C@H]2OCO[C@H]2[C@@H]1O`, for which the MIC in data set [1] was determined as 12.5 µg/mL (≈ 26.9 µM); in [2], 12.5 µg/mL (≈ 26.9 µM); in [3] it was 3.13 µg/mL (≈ 6.73 µM); in [4], 1.56 µg/mL (≈ 3.35 µM).

With `C/C(=C\c1cc(F)c(OCCO)cc1F)C(=O)N[C@@H]1[C@H](O)[C@@H](O)[C@H]2OCO[C@H]2[C@@H]1O`, the MIC in data set [1] was 100 µg/mL (≈ 232 µM); in [2], over 100 µg/mL; in data set [3], over 100 µg/mL. In addition, the MIC result in data set [4] is “inactive”.

Take `CCOc1cc(F)c(/C=C(\C)C(=O)N[C@@H]2[C@H](O)[C@@H](O)[C@H]3OCO[C@H]3[C@@H]2O)cc1F`: the MIC in data set [1] turned out to be 100 µg/mL (≈ 241 µM); in [2], 25 µg/mL (≈ 60.2 µM); in data set [3] it was 12.5 µg/mL (≈ 30.1 µM). Also, the MIC result in data set [4] is “inactive”.

`C/C(=C\c1cc(F)c(OCC2(F)CCC2)cc1F)C(=O)N[C@@H]1[C@H](O)[C@@H](O)[C@H]2OCO[C@H]2[C@@H]1O`: the MIC in [1] is 6.2 µg/mL (≈ 13.1 µM); in data set [2], 6.2 µg/mL (≈ 13.1 µM); in data set [3] it was 6.2 µg/mL (≈ 13.1 µM); in data set [4], 3.1 µg/mL (≈ 6.55 µM).
